In PubChem BioAssay AID2060335 (Molecular Pharmacology Branch, DTP, NCI, 2025):

Test system: DU-145 multicell spheroids with HUVEC/MSC, viability
Assay: Anticancer human tumor DU-145 cell line growth inhibition [IpAb];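 further: spheroids exposed to agents for seven days before measurement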;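 on viability, T/C: percent of DMSO vehicle control viability so 100% = untreated level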
Settings: for IC50: curve of first compound; for viability, T/C: stronger effect = lower value
In short: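 Combinations with ipatasertib or abemaciclib were tested on tumour spheroids holding HUVEC (25%) and MSC (15%) alongside 60% malignant cells. Top concentration was at or near clinical Cmax (10 microM if undefined), descending in half-log steps.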

[1] = second compound 0.1 µM, first compound 0.0316 µM
[2] = second compound 0.1 µM, first compound 0.1 µM
[3] = second compound 0.1 µM, first compound 0.316 µM
[4] = second compound 0.1 µM, first compound 1 µM
[5] = second compound 0.316 µM, first compound 0.0316 µM
[6] = second compound 0.316 µM, first compound 0.1 µM
[7] = second compound 0.316 µM, first compound 0.316 µM
[8] = second compound 0.316 µM, first compound 1 µM
[9] = second compound 1 µM, first compound 0.0316 µM
[10] = second compound 1 µM, first compound 0.1 µM
[11] = second compound 1 µM, first compound 0.316 µM
[12] = second compound 1 µM, first compound 1 µM
[13] = second compound 3.16 µM, first compound 0.0316 µM
[14] = second compound 3.16 µM, first compound 0.1 µM
[15] = second compound 3.16 µM, first compound 0.316 µM
[16] = second compound 3.16 µM, first compound 1 µM
[17] = second compound 10 µM, first compound 0.0316 µM
[18] = second compound 10 µM, first compound 0.1 µM
[19] = second compound 10 µM, first compound 0.316 µM
[20] = second compound 10 µM, first compound 1 µM
[21] = second compound 0.1 µM, first compound 3.16 µM
[22] = second compound 0.1 µM, first compound 10 µM
[23] = second compound 0.316 µM, first compound 3.16 µM
[24] = second compound 0.316 µM, first compound 10 µM
[25] = second compound 1 µM, first compound 3.16 µM
[26] = second compound 1 µM, first compound 10 µM
[27] = second compound 3.16 µM, first compound 3.16 µM
[28] = second compound 3.16 µM, first compound 10 µM
[29] = second compound 10 µM, first compound 3.16 µM
[30] = second compound 10 µM, first compound 10 µM

CC(=O)c1c(C)c2cnc(Nc3ccc(N4CCNCC4)cn3)nc2n(C2CCCC2)c1=O + CC(C)NCC(C(=O)N1CCN(c2ncnc3c2C(C)CC3O)CC1)c1ccc(Cl)cc1
IC50 (second compound 0.1 µM): > 300 nM
IC50 (second compound 0.316 µM): > 300 nM
IC50 (second compound 1 µM): < 0.949 nM
IC50 (second compound 3.16 µM): < 0.949 nM
IC50 (second compound 10 µM): < 0.949 nM
viability, T/C (second compound 0.1 µM, first compound 0.000949 µM): 85.3%
viability, T/C (second compound 0.1 µM, first compound 0.003 µM): 79.7%
viability, T/C (second compound 0.1 µM, first compound 0.00949 µM): 83.4%
viability, T/C (second compound 0.1 µM, first compound 0.03 µM): 89.2%
viability, T/C (second compound 0.1 µM, first compound 0.0949 µM): 81.8%
viability, T/C (second compound 0.1 µM, first compound 0.3 µM): 83.7%
viability, T/C (second compound 0.316 µM, first compound 0.000949 µM): 53%
viability, T/C (second compound 0.316 µM, first compound 0.003 µM): 52.1%
viability, T/C (second compound 0.316 µM, first compound 0.00949 µM): 52.2%
viability, T/C (second compound 0.316 µM, first compound 0.03 µM): 48.1%
viability, T/C (second compound 0.316 µM, first compound 0.0949 µM): 48.8%
viability, T/C (second compound 0.316 µM, first compound 0.3 µM): 54.7%
viability, T/C (second compound 1 µM, first compound 0.000949 µM): 29.3%
viability, T/C (second compound 1 µM, first compound 0.003 µM): 30.7%
viability, T/C (second compound 1 µM, first compound 0.00949 µM): 28.9%
viability, T/C (second compound 1 µM, first compound 0.03 µM): 28.7%
viability, T/C (second compound 1 µM, first compound 0.0949 µM): 28.6%
viability, T/C (second compound 1 µM, first compound 0.3 µM): 27.8%
viability, T/C (second compound 3.16 µM, first compound 0.000949 µM): 20.3%
viability, T/C (second compound 3.16 µM, first compound 0.003 µM): 19.7%
viability, T/C (second compound 3.16 µM, first compound 0.00949 µM): 19.2%
viability, T/C (second compound 3.16 µM, first compound 0.03 µM): 19.5%
viability, T/C (second compound 3.16 µM, first compound 0.0949 µM): 20.3%
viability, T/C (second compound 3.16 µM, first compound 0.3 µM): 19.9%
viability, T/C (second compound 10 µM, first compound 0.000949 µM): 16.8%
viability, T/C (second compound 10 µM, first compound 0.003 µM): 15.5%
viability, T/C (second compound 10 µM, first compound 0.00949 µM): 15.5%
viability, T/C (second compound 10 µM, first compound 0.03 µM): 17.2%
viability, T/C (second compound 10 µM, first compound 0.0949 µM): 15.6%
viability, T/C (second compound 10 µM, first compound 0.3 µM): 16.1%

COc1c(OCCCN2CCOCC2)ccc2c3n(c(=NC(=O)c4cnc(N)nc4)nc12)CCN3 + CC(C)NCC(C(=O)N1CCN(c2ncnc3c2C(C)CC3O)CC1)c1ccc(Cl)cc1
IC50 (second compound 0.1 µM): 6.79 nM
IC50 (second compound 0.316 µM): < 3.16 nM
IC50 (second compound 1 µM): < 3.16 nM
IC50 (second compound 3.16 µM): < 3.16 nM
IC50 (second compound 10 µM): < 3.16 nM
viability, T/C (second compound 0.1 µM, first compound 0.00316 µM): 65.3%
viability, T/C (second compound 0.1 µM, first compound 0.01 µM): 41.2%
viability, T/C [1]: 27.6%
viability, T/C [2]: 12.7%
viability, T/C [3]: 9.75%
viability, T/C [4]: 10.5%
viability, T/C (second compound 0.316 µM, first compound 0.00316 µM): 41.5%
viability, T/C (second compound 0.316 µM, first compound 0.01 µM): 28.2%
viability, T/C [5]: 18.8%
viability, T/C [6]: 11.6%
viability, T/C [7]: 9.1%
viability, T/C [8]: 11.2%
viability, T/C (second compound 1 µM, first compound 0.00316 µM): 25.4%
viability, T/C (second compound 1 µM, first compound 0.01 µM): 22%
viability, T/C [9]: 14.8%
viability, T/C [10]: 10%
viability, T/C [11]: 8.83%
viability, T/C [12]: 10.2%
viability, T/C (second compound 3.16 µM, first compound 0.00316 µM): 18.7%
viability, T/C (second compound 3.16 µM, first compound 0.01 µM): 14.6%
viability, T/C [13]: 12.1%
viability, T/C [14]: 9.46%
viability, T/C [15]: 8.26%
viability, T/C [16]: 9.07%
viability, T/C (second compound 10 µM, first compound 0.00316 µM): 14.6%
viability, T/C (second compound 10 µM, first compound 0.01 µM): 12.5%
viability, T/C [17]: 10.5%
viability, T/C [18]: 8.52%
viability, T/C [19]: 7.9%
viability, T/C [20]: 9.09%

Cc1nc(NC(=O)N2CCCC2C(N)=O)sc1-c1ccnc(C(C)(C)C(F)(F)F)c1 (stereo not given) + CC(C)NCC(C(=O)N1CCN(c2ncnc3c2C(C)CC3O)CC1)c1ccc(Cl)cc1
IC50 (second compound 0.1 µM): 94.7 nM
IC50 (second compound 0.316 µM): < 31.6 nM
IC50 (second compound 1 µM): < 31.6 nM
IC50 (second compound 3.16 µM): < 31.6 nM
IC50 (second compound 10 µM): < 31.6 nM
viability, T/C [1]: 65.7%
viability, T/C [2]: 49.2%
viability, T/C [3]: 32.1%
viability, T/C [4]: 27.9%
viability, T/C [21]: 18.1%
viability, T/C [22]: 7.81%
viability, T/C [5]: 40%
viability, T/C [6]: 35%
viability, T/C [7]: 26.2%
viability, T/C [8]: 22.4%
viability, T/C [23]: 14.7%
viability, T/C [24]: 6.56%
viability, T/C [9]: 27.1%
viability, T/C [10]: 24.3%
viability, T/C [11]: 20.5%
viability, T/C [12]: 17.1%
viability, T/C [25]: 12.4%
viability, T/C [26]: 5.68%
viability, T/C [13]: 18.3%
viability, T/C [14]: 18.5%
viability, T/C [15]: 14.1%
viability, T/C [16]: 14%
viability, T/C [27]: 8.48%
viability, T/C [28]: 5.66%
viability, T/C [17]: 14.9%
viability, T/C [18]: 13.5%
viability, T/C [19]: 11.8%
viability, T/C [20]: 9.73%
viability, T/C [29]: 8.28%
viability, T/C [30]: 5.36%

Cn1nccc1Nc1nccc(-c2ccn(C(CO)c3ccc(Cl)c(F)c3)c(=O)c2)n1 (stereo not given) + CC(C)NCC(C(=O)N1CCN(c2ncnc3c2C(C)CC3O)CC1)c1ccc(Cl)cc1
IC50 (second compound 0.1 µM): > 10000 nM
IC50 (second compound 0.316 µM): < 31.6 nM
IC50 (second compound 1 µM): < 31.6 nM
IC50 (second compound 3.16 µM): < 31.6 nM
IC50 (second compound 10 µM): < 31.6 nM
viability, T/C [1]: 65.6%
viability, T/C [2]: 57.1%
viability, T/C [3]: 60%
viability, T/C [4]: 76.8%
viability, T/C [21]: 99%
viability, T/C [22]: 66.2%
viability, T/C [5]: 42.6%
viability, T/C [6]: 36.2%
viability, T/C [7]: 35.8%
viability, T/C [8]: 45.7%
viability, T/C [23]: 66.3%
viability, T/C [24]: 60.3%
viability, T/C [9]: 27.4%
viability, T/C [10]: 24.6%
viability, T/C [11]: 26.2%
viability, T/C [12]: 30.7%
viability, T/C [25]: 42.3%
viability, T/C [26]: 47.6%
viability, T/C [13]: 18.7%
viability, T/C [14]: 16.5%
viability, T/C [15]: 19.3%
viability, T/C [16]: 20.7%
viability, T/C [27]: 27.6%
viability, T/C [28]: 36.8%
viability, T/C [17]: 13.4%
viability, T/C [18]: 11.6%
viability, T/C [19]: 11.7%
viability, T/C [20]: 14.3%
viability, T/C [29]: 21.7%
viability, T/C [30]: 24.6%
